Consider two molecules from patent US8334277B2, “{4-[2-(dimethylamino)-1-(1-hydroxycyclohexyl)ethyl]phenoxy}phosphate or a pharmaceutically acceptable salt thereof, a production method therefor and a pharmaceutical composition for preventing and treating central nervous system disorders containing the same as an active component” (JE IL Pharmaceutical Co., Ltd., priority 2008, dated 2012).

One series concerns ICR mice. Briefly: Acute toxicity experiment, intraperitoneal injection, number of dead mice over 7 days. In kind it is in vivo. Particulars: for The number of death mice: Day 1, 8 mice. The method, then: Experiment was conducted to measure acute toxicity of ODV phosphate compound according to an embodiment of the present invention.
7-week-old ICR mice, weighing 25˜35 g each, were used in the experiment (SPF, production firm: coretech).

The nature of series [1]: Measurement of solubility in water (HPLC, saturated solution). In kind it is physicochemical. The procedure:
Experiment was conducted to measure water solubility of ODV phosphate compound of the present invention.
40, 50 and 60 mg of ODV phosphate composition prepared by the embodiment was mixed in 100 mL of water to form 0.4, 0.5 and 0.6 mg/mL concentration of ODV phosphate solution respectively. The above ODV phosphate solution and internal standard substance were analyzed with HPLC to measure ODV phosphate according to the concentration of ODV phosphate and peak area ratio of internal standard substance, and a calibration curve was set. The HPLC analysis was done many times to measure the average value of the calibration curve.
An excessive amount of ODV phosphate compound (approximately 400 mg) prepared by the embodiment was dissolved in 2 mL of water and filtered to form a saturated solution. 1 mL of the above saturated solution was diluted with water to prepare 20 mL of solution. The diluting process was repeated many times to form saturated solution with 800 times of dilution rate. This solution and internal standard substance were analyzed with HPLC to measure ODV phosphate and peak area ratio of internal standard. The measured value was substituted in calibration curve to calculate the concentration, and multiply the dilution rate to measure solubility.

Series [2] is described as follows: Pharmacokinetics experiment, oral administration, blood concentration by LC/MS/MS. In kind it is in vivo, SD rats. Particulars: 120 mg/kg oral. The method, then: 9-week-old female […], SD rats, weighing 320±20 g each, were used in the experiment (SPF, production firm: coretech). ODV phosphate compound prepared by the embodiment was dissolved in solvent (100% distilled water) and 120 mg/kg of the same was orally administered to 3 mice. After 0.08, 0.25, 0.5, 1, 2, 3, 4, 6 hours of administration, blood was taken from mice, and separated by centrifuge. The concentration of the separated blood was measured with LC/MS/MS. As a comparative example, ODV succinate hydrate was measured in the same manner explained above.
Cmax is the highest concentration level of blood in body, Tmax is the time to reach the highest concentration level of blood, AUC0-t is square between blood concentration to time and time, AUC0-inf is square between blood concentration and time, and t1/2 is half-life of compound in body, and MRTinf is remaining period of compound in body.

Consider `CN(C)CC(c1ccc(OP(=O)(O)O)cc1)C1(O)CCCCC1` (stereo not shown) [ODV phosphate, {4-[2-(dimethylamino)-1-(1-hydroxycyclohexyl)ethyl]phenoxy}phosphate], for which the “dead mice over the whole observation” value with ICR mice (450 mg/kg i.p., for 7 days, 8 mice) was “no mice were dead”. Moreover, the “water solubility, times higher than ODV succinate” value in series [1] (313.4 vs […]) came out at 4 times. Also, the solubility in series [1] (thermodynamic from solid) was found to be 313 mg/mL. Further, in series [2], the “AUC0-inf compared with ODV succinate hydrate” value is listed as “noticeably higher” and the “Cmax compared with ODV succinate hydrate” value was “noticeably higher”.
As for `CN(C)CC(c1ccc(O)cc1)C1(O)CCCCC1.O=C(O)CCC(=O)O` (stereo not shown) [ODV succinate], the “The number of death mice” value with ICR mice (350 mg/kg i.p.) was 2. For the same molecule, the “The number of death mice” value in the series on ICR mice (450 mg/kg i.p.) was 8. In series [2] (blood), the AUC0-inf turned out to be 9268.8 ng·h/mL, the maximum concentration (Cmax) turned out to be 2786.7 ng/mL, the MRTinf was 5.7 h and the time of peak concentration (Tmax) is 0.5 h. The t1/2 in series [2] (blood) was found to be 5.0 h. In series [2] (blood, sampling to 6 hours), this molecule registered an AUC0-t of 7017.4 ng·h/mL.

The term solubility denotes the dissolved amount per volume that the medium holds. As a reminder, the Cmax is the peak of the concentration-time curve. By Tmax is commonly meant the time from dosing to the highest level.
